# Measurements reported in ChEMBL document CHEMBL1131834, “Synthesis and antitumoral activities of marine ent-chromazonarol and related compounds” (Bioorg Med Chem Lett, 1999).
# Tests used:
# Type in all cases: functional, cell-based
# [1] = system: A549; assay: Antitumoral activity was assayed against A-549 cell line; settings: Homo sapiens
# [2] = system: HT-29; assay: Antitumoral activity was assayed against HT-29 cell line; settings: Homo sapiens
# [3] = system: SK-MEL-28; assay: Antitumoral activity was assayed against MEL-28 cell line; settings: Homo sapiens
# [4] = system: P388; assay: Antitumoral activity was assayed against P-388 cell line; settings: Mus musculus
IC50 [1] [µM],IC50 [2] [µM],IC50 [3] [µM],IC50 [4] [µM],SMILES
15.9,15.9,15.9,15.9,CC1(C)CCC[C@@]2(C)C1CC[C@@]1(C)Oc3ccc(O)cc3C[C@@H]12 (some centres not stated)
0.79,0.79,0.79,0.16,CC1=CCC2C(C)(C)CCC[C@]2(C)[C@H]1Cc1cc(O)ccc1O (some centres not stated)
3.2,3.2,3.2,0.8,CC1=CCC2C(C)(C)CCC[C@]2(C)[C@H]1CC1=CC(=O)C=CC1=O (some centres not stated)
